Reference: patent US10208068B2, “Macrocycles as factor XIa inhibitors” (BRISTOL-MYERS SQUIBB COMPANY, priority 2011, dated 2019)
Counter-ions that a name gives are not always drawn. Like-named read-outs stand apart in the source and are kept apart here.

How the values were obtained:
[1] = 12-membered ring
[2] = rcm bond
[3] = target: human Factor XIa (Homo sapiens (Human), UniProt P03951); experiment: Factor XIa enzyme inhibition assay (chromogenic substrate S-2366); type: biochemical; settings: purified human Factor XIa 25-200 pM, substrate S-2366, 50 mM HEPES pH 7.4
[4] = from C=CC[C@H](NC(=O)OC(C)(C)C)c1cc(-c2ccc(NC(=O)OC)cc2NC(=O)C(C=C)CC)ccn1, rcm bond, Grubbs II, microwave, DCE, 120.0 °C, 0.42 h

Sequence of human Factor XIa (P03951 388-625): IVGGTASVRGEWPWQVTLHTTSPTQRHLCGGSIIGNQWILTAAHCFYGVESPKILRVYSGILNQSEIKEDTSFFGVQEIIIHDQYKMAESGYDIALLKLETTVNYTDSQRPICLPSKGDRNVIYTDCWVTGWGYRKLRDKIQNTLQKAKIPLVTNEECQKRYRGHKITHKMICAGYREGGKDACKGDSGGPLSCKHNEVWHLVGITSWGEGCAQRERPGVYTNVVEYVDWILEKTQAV
Sequence of human Factor XIa (P03951 19-387 partner): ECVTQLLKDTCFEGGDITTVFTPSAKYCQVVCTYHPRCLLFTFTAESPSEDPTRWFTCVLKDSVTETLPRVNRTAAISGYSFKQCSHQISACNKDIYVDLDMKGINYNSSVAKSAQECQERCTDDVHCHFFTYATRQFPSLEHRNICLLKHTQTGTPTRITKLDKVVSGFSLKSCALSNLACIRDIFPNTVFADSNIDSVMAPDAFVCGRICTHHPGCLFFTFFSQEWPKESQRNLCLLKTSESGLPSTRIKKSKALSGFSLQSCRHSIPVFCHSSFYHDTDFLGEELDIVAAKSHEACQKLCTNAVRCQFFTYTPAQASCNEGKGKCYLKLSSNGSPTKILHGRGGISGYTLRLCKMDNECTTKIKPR

| Structure (SMILES) | Ki [3] | also measured |
| --- | --- | --- |
| CCOC(=O)C1C/C=C/C[C@H](NC(=O)OC(C)(C)C)c2cc(ccn2)-c2ccc(NC(=O)OC)cc2N1 (stereo partly shown) | – | ring closure, isolated yield ([1]; from C=CCC(Nc1cc(NC(=O)OC)ccc1-c1ccnc([C@H](CC=C)NC(=O)OC(C)(C)C)c1)C(=O)OCC, rcm bond, Grubbs (as described before)): 47% |
| COC(=O)Nc1ccc(-c2ccnc([C@H](CCCO)NC(=O)OC(C)(C)C)c2)c(N)c1 | – | ring closure, isolated yield ([1]; the molecule shown is the open-chain precursor, other bond, phosgene, then TEA/DMAP, DCM, 3.3 mM, 2 steps): 57% |
| COC(=O)Nc1ccc2c(c1)NC(=O)C(C)/C=C/C[C@H](NC(=O)OC(C)(C)C)c1cc-2nnc1Cl (stereo partly shown) | – | ring closure, isolated yield ([1]; from C=CC[C@H](NC(=O)OC(C)(C)C)c1cc(-c2ccc(NC(=O)OC)cc2NC(=O)C(C)C=C)nnc1Cl, rcm bond, Grubbs II (0.4 eq), 1,2-dichloroethane, 4.7 mM, 120.0 °C, 0.5 h): 22% |
| COC(=O)Nc1ccc2c(c1)NC(=O)C/C=C/C(C)[C@H](NC(=O)OC(C)(C)C)c1cc-2ccn1 (stereo partly shown) | – | ring closure, yield after HPLC ([2]; from C=CCC(=O)Nc1cc(NC(=O)OC)ccc1-c1ccnc([C@@H](NC(=O)OC(C)(C)C)C(C)C=C)c1, 12-membered ring, Grubbs II, toluene, 9.0 mM, 160.0 °C, 0.33 h): 12% |
| COC(=O)Nc1ccc2c(c1)NC(=O)C/C=C/C[C@H](NC(=O)OC(C)(C)C)c1cc-2ccn1 | – | ring closure, isolated yield ([1]; from C=CCC(=O)Nc1cc(NC(=O)OC)ccc1-c1ccnc([C@H](CC=C)NC(=O)OC(C)(C)C)c1, rcm bond, Grubbs II (0.4 eq)/pTsOH, DCM, 4.0 mM, 40.0 °C, 3.0 h): 26% |
| COC(=O)Nc1ccc2c(c1)NC(=O)CC/C=C/C[C@H](NC(=O)OC(C)(C)C)c1cc-2cc(=O)[nH]1 | – | ring closure, yield after HPLC ([2]; from C=CCCC(=O)Nc1cc(NC(=O)OC)ccc1-c1cc([C@H](CC=C)NC(=O)OC(C)(C)C)[nH]c(=O)c1, 13-membered ring, Grubbs II, microwave, DCE, 18.9 mM, 120.0 °C, 0.5 h): 26% |
| COC(=O)Nc1ccc2c(c1)NC(=O)CC/C=C/C[C@H](NC(=O)OC(C)(C)C)c1nc-2cn1COCC[Si](C)(C)C | – | ring closure, yield after HPLC ([2]; from C=CCCC(=O)Nc1cc(NC(=O)OC)ccc1-c1cn(COCC[Si](C)(C)C)c([C@H](CC=CN)C(=O)OC(C)(C)C)n1, 13-membered ring): 42% |
| COC(=O)Nc1ccc2c(c1)NC(=O)[C@H](C)/C=C/C[C@H](NC(=O)OC(C)(C)C)c1cc-2ccn1 | – | ring closure, isolated yield ([1]; from C=CC[C@H](NC(=O)OC(C)(C)C)c1cc(-c2ccc(NC(=O)OC)cc2NC(=O)C(C)C=C)ccn1, rcm bond, Grubbs II (0.1 eq)/pTsOH, DCM, 4.0 mM, 40.0 °C, 6.0 h): 25%; ring closure, isolated yield ([1]; from C=CC[C@H](NC(=O)OC(C)(C)C)c1cc(-c2ccc(NC(=O)OC)cc2NC(=O)[C@H](C)C=C)ccn1, rcm bond, Grubbs II (0.2 eq)/pTsOH, DCM, 11.8 mM, 4.0 h): 71% |
| COC(=O)Nc1ccc2c(c1)NC(=O)[C@H](C)C=CC[C@H](NC(=O)OC(C)(C)C)c1nc-2cn1COCC[Si](C)(C)C | – | ring closure, isolated yield ([1]; from C=CC[C@H](NC(=O)OC(C)(C)C)c1nc(-c2ccc(NC(=O)OC)cc2NC(=O)[C@H](C)C=C)cn1COCC[Si](C)(C)C, rcm bond, Grubbs II (0.4 eq)/pTsOH, DCM, 10.0 mM, 40.0 °C, 21.5 h): 41% |
| C[C@@H]1/C=C/C[C@H](NC(=O)OC(C)(C)C)c2cn(COCC[Si](C)(C)C)c(n2)-c2ccc([N+](=O)[O-])cc2NC1=O | – | ring closure, isolated yield ([1]; from C=CC[C@H](NC(=O)OC(C)(C)C)c1cn(COCC[Si](C)(C)C)c(-c2ccc([N+](=O)[O-])cc2NC(=O)[C@H](C)C=C)n1, rcm bond, Grubbs II (0.287 mmol), DCM, 16.0 h): 56% |
| CCC1/C=C/C[C@H](NC(=O)OC(C)(C)C)c2cc(ccn2)-c2ccc(NC(=O)OC)cc2NC1=O (single isomer, unassigned; diastereomer a) | – | ring closure, isolated yield [1, 4]: 10% |
| CCC1/C=C/C[C@H](NC(=O)OC(C)(C)C)c2cc(ccn2)-c2ccc(NC(=O)OC)cc2NC1=O (single isomer, unassigned; diastereomer b) | – | ring closure, isolated yield [1, 4]: 16% |
| COC(=O)Nc1ccc2c(c1)NC(=O)[C@H](C)CCC[C@H](NC(=O)c1cncc(-c3cccc(Cl)c3F)c1)c1cc-2ccn1 [Example 75] | 36.5 nM | – |
| COC(=O)Nc1ccc2c(c1)NC(=O)CCCC(C)[C@H](NC(=O)c1nnn(-c3cccc(Cl)c3F)c1C)c1cc-2ccn1 (stereo partly drawn) [Example 88, Methyl N-[(14S)-14-[1-(3-chloro-2-fluorophenyl)-5-methyl-1H-1,2,3-triazole-4-amido]-13-methyl-9-oxo-8,16-diazatricyclo[13.3.1.0^2,7]nonadeca-1(19),2(7),3,5,15,17-hexaen-5-yl]carbamate] | 52.6 nM | – |
| Cc1c(C(=O)N[C@H]2CCC[C@@H](C)C(=O)Nc3cc(NC(=O)C(F)(F)F)ccc3-c3ccnc2c3)nnn1-c1cccc(Cl)c1F [Example 137, 1-(3-Chloro-2-fluorophenyl)-5-methyl-N-[(10R,14S)-10-methyl-9-oxo-5-(trifluoroacetamido)-8,16-diazatricyclo[13.3.1.0^2,7]nonadeca-1(19),2(7),3,5,15,17-hexaen-14-yl]-1H-1,2,3-triazole-4-carboxamide] | 547 nM | – |
| Cc1c(C(=O)N[C@H]2CCC[C@@H](C)C(=O)Nc3cc(NC(=O)OCF)ccc3-c3ccnc2c3)nnn1-c1cccc(Cl)c1F [Example 139, Fluoromethyl N-[(10R,14S)-14-[1-(3-chloro-2-fluorophenyl)-5-methyl-1H-1,2,3-triazole-4-amido]-10-methyl-9-oxo-8,16-diazatricyclo[13.3.1.0^2,7]nonadeca-1(19),2(7),3,5,15,17-hexaen-5-yl]carbamate] | 5.49 nM | – |
| Cc1c(C(=O)N[C@H]2CCC[C@@H](C)C(=O)Nc3cc(Nc4ccncn4)ccc3-c3ccnc2c3)nnn1-c1cccc(Cl)c1F [Example 151] | 17.3 nM | – |

| Structure (SMILES) | Ki [3] | also measured |
| --- | --- | --- |
| CCOC(=O)CNc1ccc2c(c1)NC(=O)[C@H](C)CCC[C@H](NC(=O)c1nnn(-c3cccc(Cl)c3F)c1C)c1cc-2ccn1 [Example 156, Ethyl 2-{[(10R,14S)-14-[1-(3-chloro-2-fluorophenyl)-5-methyl-1H-1,2,3-triazole-4-amido]-10-methyl-9-oxo-8,16-diazatricyclo[13.3.1.0^2,7]nonadeca-1(19),2(7),3,5,15,17-hexaen-5-yl]amino}acetate] | 16.8 nM | – |
| Cc1c(C(=O)N[C@H]2CCC[C@@H](C)C(=O)Nc3cc(N)c(C(=O)O)cc3-c3ccnc2c3)nnn1-c1cccc(Cl)c1F [Example 158, (10R,14S)-5-Amino-14-[1-(3-chloro-2-fluorophenyl)-5-methyl-1H-1,2,3-triazole-4-amido]-10-methyl-9-oxo-8,16-diazatricyclo[13.3.1.0^2,7]nonadeca-1(19),2(7),3,5,15,17-hexaene-4-carboxylic acid] | < 5 nM | – |
| Cc1nnc(Nc2ccc3c(c2)NC(=O)[C@H](C)CCC[C@H](NC(=O)c2nnn(-c4cccc(Cl)c4F)c2C)c2cc-3ccn2)o1 [Example 159, 1-(3-Chloro-2-fluorophenyl)-5-methyl-N-[(10R,14S)-10-methyl-5-[(5-methyl-1,3,4-oxadiazol-2-yl)amino]-9-oxo-8,16-diazatricyclo[13.3.1.0^2,7]nonadeca-1(19),2(7),3,5,15,17-hexaen-14-yl]-1H-1,2,3-triazole-4-carboxamide] | 9.94 nM | – |
| Cc1c(C(=O)N[C@H]2CCC[C@H](C)C(=O)Nc3cc(-c4ccn[nH]4)ccc3-c3ccnc2c3)nnn1-c1cccc(Cl)c1F [Example 165, 1-(3-Chloro-2-fluorophenyl)-5-methyl-N-[(10S,14S)-10-methyl-9-oxo-5-(1H-pyrazol-5-yl)-8,16-diazatricyclo[13.3.1.0^2,7]nonadeca-1(19),2(7),3,5,15,17-hexaen-14-yl]-1H-1,2,3-triazole-4-carboxamide, TFA salt] | 5080 nM | – |
| Cc1c(C(=O)N[C@H]2CCC[C@@H](C)C(=O)Nc3cc(C(N)=O)ccc3-c3ccnc2c3)cnn1-c1cccc(Cl)c1F [Example 190, (10R,14S)-14-C-1-(3-Chloro-2-fluorophenyl)-5-methyl-1H-pyrazole-4-10-methyl-9-oxo-8,16-diazatricyclo[13.3.1.0^2,7]nonadeca-1(19),2(7),3,5,15,17-hexaene-5,14-diamido, TFA salt] | 6.65 nM | – |
| Cc1c(C(=O)N[C@H]2CCCCC(=O)Nc3cc(C(=O)N(C)C)ccc3-c3ccnc2c3)cnn1-c1cccc(Cl)c1F [Example 193, (14S)-14-C-1-(3-Chloro-2-fluorophenyl)-5-methyl-1H-pyrazole-4-5-N,5-N-dimethyl-9-oxo-8,16-diazatricyclo[13.3.1.0^2,7]nonadeca-1(19),2(7),3,5,15,17-hexaene-5,14-diamido, TFA salt] | 2980 nM | – |
| COC(=O)Nc1ccc2c(c1)NC(=O)[C@H](C)CCC[C@H](NC(=O)c1nnn(-c3c(F)ccc(Cl)c3F)c1C)c1nc-2c[nH]1 [Example 207] | 153 nM | – |
| COC(=O)Nc1ccc2c(c1)NC(=O)[C@H](C)CCC[C@H](NC(=O)c1cnn(-c3cccc(Cl)c3F)c1C)c1cc(OC)nc-2c1 [Example 227] | < 5 nM | – |
| COC(=O)Nc1ccc2c(c1)NC(=O)[C@@H](C)CCC[C@@H](NC(=O)c1cnn(-c3cccc(Cl)c3F)c1C)c1cc-2ncc1F [Example 232] | 4290 nM | – |
| COC(=O)Nc1ccc2c(c1)NC(=O)CCCC[C@H](NC(=O)c1cnn(-c3cccc(Cl)c3F)c1C)c1cc-2ccn1 [Example 234] | < 5 nM | – |
| COC(=O)Nc1ccc2c(c1)NC(=O)[C@H](C)CCC[C@H](NC(=O)c1cnn(-c3cccc(Cl)c3F)c1C)c1cc-2cnn1 [Example 246] | < 5 nM | – |
| COCCOC(=O)Nc1ccc2c(c1)NC(=O)[C@H](C)CCC[C@H](NC(=O)c1ncn(-c3cccc(Cl)c3F)c1C)c1cc-2ccn1 [Example 251] | < 5 nM | – |
| COC(=O)Nc1ccc2c(c1)NC(=O)[C@H](C)CCC[C@H](NC(=O)c1ncn(-c3cccc(Cl)c3F)c1C)c1cc-2cc(=O)[nH]1 [Example 256] | < 5 nM | – |
| COC(=O)Nc1ccc2c(c1)NC(=O)[C@H](C)CCC[C@H](NC(=O)c1ncn(-c3cccc(Cl)c3F)c1C)c1cc-2cc(OC)n1 [Example 257] | < 5 nM | – |
| COC(=O)Nc1ccc2c(c1)NC(=O)[C@H](C)CCC[C@H](NC(=O)c1cnn(-c3cccc(Cl)c3F)c1C)c1c[nH]c-2n1 [Example 262] | 13.6 nM | – |
| COC(=O)Nc1ccc2c(c1)NC(=O)[C@H](C)CCC[C@H](NC(=O)c1ncn(-c3cccc(Cl)c3F)c1C)c1c[nH]c-2n1 [Example 263] | 33.2 nM | – |
